In US20170008888A1 (KYORIN PHARMACEUTICAL CO., LTD., priority 2014, published 2017):
Read-outs that look alike come from different tables or passages of the source.

Key:
ERK5 = molecular target: T1, ERK5 (Homo sapiens, UniProt Q13164); assay: Probe-based (AX9989 acyl phosphate ATP probe) kinase profiling in Jurkat lysate: ERK5; format: binding; conditions: for IC50: Jurkat lysate
T1 construct: screened for activity against several kinases in Jurkat cells; endogenous in cells; host or cells: Jurkat cell lysate
Outline: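 Gel-filtered Jurkat lysate (5 mg/ml, 20 mM MnCl2) preincubated 15 min at room temperature with compound, then labelled with 5 μM AX9989 acyl phosphate ATP probe. Probe-labelled ERK5 active-site peptides quantified by LC/MS after trypsin digestion and streptavidin capture; IC50 calculated from percent inhibition at the screening concentration.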

AurA = molecular target: T2, AurA (Homo sapiens, UniProt O14965); assay: Probe-based (AX9989) kinase profiling in Jurkat lysate: AurA; format: binding
T2 construct: screened for activity against several kinases in Jurkat cells; endogenous in cells; host or cells: Jurkat cell lysate
T2 sequence (O14965 1-403): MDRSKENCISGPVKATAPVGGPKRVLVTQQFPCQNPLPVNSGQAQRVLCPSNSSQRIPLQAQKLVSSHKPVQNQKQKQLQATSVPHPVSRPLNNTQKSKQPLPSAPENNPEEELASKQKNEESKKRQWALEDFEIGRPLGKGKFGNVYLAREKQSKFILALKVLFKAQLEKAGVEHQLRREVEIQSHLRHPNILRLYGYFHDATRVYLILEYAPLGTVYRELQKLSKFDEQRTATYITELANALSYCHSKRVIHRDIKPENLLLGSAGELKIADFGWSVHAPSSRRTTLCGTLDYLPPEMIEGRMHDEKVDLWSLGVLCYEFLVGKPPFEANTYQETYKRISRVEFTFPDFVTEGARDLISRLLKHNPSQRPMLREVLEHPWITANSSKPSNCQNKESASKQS
Outline: (§1)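 Compounds were pre-incubated for 15 min at room temperature with gel-filtered Jurkat cell lysate supplemented with 20 mM MnCl2, after which the acyl phosphate ATP probe AX9989 was added at 5 μM final. Labeled active-site peptides were enriched after tryptic digestion and measured by LC/MS, with percent inhibition taken relative to samples without compound.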

AurB or AurC = assay: Probe-based (AX9989) kinase profiling in Jurkat lysate: AurB or AurC; format: binding; conditions: for Kinase inhibition % at indicated screening concentration: AurB or AurC: screening concentration 1.0 μM; for AurB or AurC Inhibition % at indicated screening concentration: screening concentration 1 μM
Outline: as §1

JAK1 = molecular target: T3, JAK1 (Homo sapiens, UniProt P23458); assay: Probe-based (AX9989) kinase profiling in Jurkat lysate: JAK1; format: binding
T3 construct: screened for activity against several kinases in Jurkat cells; endogenous in cells; host or cells: Jurkat cell lysate
Outline: as §1

AMPKa1 or AMPKa2 = assay: Probe-based (AX9989) kinase profiling in Jurkat lysate: AMPKa1 or AMPKa2; format: binding; conditions: for Kinase inhibition % at indicated screening concentration: AMPKa1 or AMPKa2: screening concentration 1.0 μM; for AMPKa1 or AMPKa2 Inhibition % at indicated screening concentration: screening concentration 1 μM
Outline: as §1

TAO2 = molecular target: T4, TAO2 (Homo sapiens, UniProt Q9UL54); assay: Probe-based (AX9989) kinase profiling in Jurkat lysate: TAO2; format: binding
T4 construct: screened for activity against several kinases in Jurkat cells; endogenous in cells; host or cells: Jurkat cell lysate
T4 sequence (Q9UL54 1-1235): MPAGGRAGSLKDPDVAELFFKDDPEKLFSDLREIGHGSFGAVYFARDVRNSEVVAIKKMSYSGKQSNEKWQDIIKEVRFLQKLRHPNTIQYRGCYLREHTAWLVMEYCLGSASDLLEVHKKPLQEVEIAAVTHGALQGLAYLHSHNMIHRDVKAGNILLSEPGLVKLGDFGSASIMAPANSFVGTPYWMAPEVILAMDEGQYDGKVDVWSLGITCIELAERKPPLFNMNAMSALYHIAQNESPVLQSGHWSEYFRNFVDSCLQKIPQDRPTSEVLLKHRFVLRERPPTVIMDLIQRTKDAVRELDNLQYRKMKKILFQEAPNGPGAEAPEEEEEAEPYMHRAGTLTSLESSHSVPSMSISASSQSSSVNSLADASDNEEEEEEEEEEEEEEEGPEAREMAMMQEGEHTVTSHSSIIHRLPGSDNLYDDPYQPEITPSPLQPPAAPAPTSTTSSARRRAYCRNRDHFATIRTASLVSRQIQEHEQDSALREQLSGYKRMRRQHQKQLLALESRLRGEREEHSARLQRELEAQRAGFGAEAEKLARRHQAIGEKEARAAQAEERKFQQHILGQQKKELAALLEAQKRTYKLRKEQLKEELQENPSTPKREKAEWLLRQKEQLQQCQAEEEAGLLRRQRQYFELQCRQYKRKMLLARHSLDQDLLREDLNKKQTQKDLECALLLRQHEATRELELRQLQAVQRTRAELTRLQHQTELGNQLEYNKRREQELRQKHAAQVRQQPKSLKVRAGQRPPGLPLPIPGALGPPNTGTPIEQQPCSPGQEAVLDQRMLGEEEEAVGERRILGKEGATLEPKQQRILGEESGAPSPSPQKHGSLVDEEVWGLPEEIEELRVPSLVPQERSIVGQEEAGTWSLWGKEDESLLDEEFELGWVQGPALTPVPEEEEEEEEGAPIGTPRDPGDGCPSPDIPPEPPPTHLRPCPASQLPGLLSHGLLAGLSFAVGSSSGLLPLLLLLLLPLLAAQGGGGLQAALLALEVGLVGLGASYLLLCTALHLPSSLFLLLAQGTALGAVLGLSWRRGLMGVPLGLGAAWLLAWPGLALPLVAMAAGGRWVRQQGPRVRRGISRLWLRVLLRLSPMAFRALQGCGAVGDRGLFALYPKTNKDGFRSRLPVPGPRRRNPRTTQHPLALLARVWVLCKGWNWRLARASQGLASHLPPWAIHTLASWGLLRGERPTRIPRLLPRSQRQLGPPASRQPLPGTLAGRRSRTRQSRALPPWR
Outline: as §1

ACK = molecular target: T5, ACK (Homo sapiens, UniProt Q07912); assay: Probe-based (AX9989) kinase profiling in Jurkat lysate: ACK; format: binding
T5 construct: screened for activity against several kinases in Jurkat cells; endogenous in cells; host or cells: Jurkat cell lysate
Outline: as §1

ABL or ARG = assay: Probe-based (AX9989) kinase profiling in Jurkat lysate: ABL or ARG; format: binding; conditions: for Kinase inhibition % at indicated screening concentration: ABL or ARG: screening concentration 1.0 μM; for ABL or ARG Inhibition % at indicated screening concentration: screening concentration 1 μM
Outline: as §1

human PBMCs = assay: Human PBMC TNF-α response to endotoxin (ELISA); format: cell-based; conditions: 0.1 μg/ml LPS 16 h, read-out: EC50 for the inhibition of the human PBMC TNF-α response to endotoxin, ave. ± S.D.
Outline: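 PBMCs at 2e6 cells/ml in RPMI 1640 with 10% charcoal-dextran-treated FBS were pre-treated 1 h at 37 °C with compound (4-point 1:5 dilution from 10 μM). Stimulation with 0.1 μg/ml E. coli 0111:B4 LPS for 16 h; TNF-α measured by ELISA (A450) in 25-fold diluted supernatant.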

[1] = calculated from percent inhibition of AX9989 labeling and the screening concentration
[2] = screening concentration 1.0 μM, read-out: Kinase inhibition % at indicated screening concentration: ERK5
[3] = screening concentration 1.0 μM, read-out: Kinase inhibition % at indicated screening concentration: AurA
[4] = screening concentration 1.0 μM, read-out: Kinase inhibition % at indicated screening concentration: JAK1
[5] = screening concentration 1.0 μM, read-out: Kinase inhibition % at indicated screening concentration: TAO2
[6] = screening concentration 1.0 μM, read-out: Kinase inhibition % at indicated screening concentration: ACK
[7] = calculated from percent inhibition and screening concentration, AX9989 probe
[8] = screening concentration 1 μM, read-out: ERK5 Inhibition % at indicated screening concentration
[9] = screening concentration 1 μM, read-out: AurA Inhibition % at indicated screening concentration
[10] = screening concentration 1 μM, read-out: JAK1 Inhibition % at indicated screening concentration
[11] = screening concentration 1 μM, read-out: TAO2 Inhibition % at indicated screening concentration
[12] = screening concentration 1 μM, read-out: ACK Inhibition % at indicated screening concentration

T5 sequence (Q07912 whole entry): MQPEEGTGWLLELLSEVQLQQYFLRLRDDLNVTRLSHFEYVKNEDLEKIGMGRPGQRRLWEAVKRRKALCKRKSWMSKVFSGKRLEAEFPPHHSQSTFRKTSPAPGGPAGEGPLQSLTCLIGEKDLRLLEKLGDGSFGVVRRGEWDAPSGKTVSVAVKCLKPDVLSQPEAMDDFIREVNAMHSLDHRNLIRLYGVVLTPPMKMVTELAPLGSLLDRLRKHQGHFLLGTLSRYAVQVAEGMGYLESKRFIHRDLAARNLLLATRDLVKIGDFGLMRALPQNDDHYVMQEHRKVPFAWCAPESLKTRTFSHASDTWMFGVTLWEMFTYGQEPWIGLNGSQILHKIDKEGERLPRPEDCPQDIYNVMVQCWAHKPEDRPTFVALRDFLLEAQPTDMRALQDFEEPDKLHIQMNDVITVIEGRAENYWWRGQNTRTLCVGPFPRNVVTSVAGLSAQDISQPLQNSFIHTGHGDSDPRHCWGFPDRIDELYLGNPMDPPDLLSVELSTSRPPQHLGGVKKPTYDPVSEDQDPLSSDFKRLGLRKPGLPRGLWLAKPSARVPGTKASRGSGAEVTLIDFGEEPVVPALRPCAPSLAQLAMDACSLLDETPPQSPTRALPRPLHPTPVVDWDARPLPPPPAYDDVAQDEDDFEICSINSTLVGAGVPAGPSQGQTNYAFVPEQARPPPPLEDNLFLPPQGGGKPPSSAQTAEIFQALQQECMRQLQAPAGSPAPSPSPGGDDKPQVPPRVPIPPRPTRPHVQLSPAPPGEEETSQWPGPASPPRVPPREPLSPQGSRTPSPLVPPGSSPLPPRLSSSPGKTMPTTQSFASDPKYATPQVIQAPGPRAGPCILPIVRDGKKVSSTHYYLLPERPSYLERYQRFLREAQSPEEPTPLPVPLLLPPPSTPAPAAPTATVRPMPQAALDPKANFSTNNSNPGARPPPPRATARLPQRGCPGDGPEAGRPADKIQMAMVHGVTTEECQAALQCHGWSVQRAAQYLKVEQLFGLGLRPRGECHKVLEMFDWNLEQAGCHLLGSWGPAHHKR
T3 sequence (P23458 whole entry): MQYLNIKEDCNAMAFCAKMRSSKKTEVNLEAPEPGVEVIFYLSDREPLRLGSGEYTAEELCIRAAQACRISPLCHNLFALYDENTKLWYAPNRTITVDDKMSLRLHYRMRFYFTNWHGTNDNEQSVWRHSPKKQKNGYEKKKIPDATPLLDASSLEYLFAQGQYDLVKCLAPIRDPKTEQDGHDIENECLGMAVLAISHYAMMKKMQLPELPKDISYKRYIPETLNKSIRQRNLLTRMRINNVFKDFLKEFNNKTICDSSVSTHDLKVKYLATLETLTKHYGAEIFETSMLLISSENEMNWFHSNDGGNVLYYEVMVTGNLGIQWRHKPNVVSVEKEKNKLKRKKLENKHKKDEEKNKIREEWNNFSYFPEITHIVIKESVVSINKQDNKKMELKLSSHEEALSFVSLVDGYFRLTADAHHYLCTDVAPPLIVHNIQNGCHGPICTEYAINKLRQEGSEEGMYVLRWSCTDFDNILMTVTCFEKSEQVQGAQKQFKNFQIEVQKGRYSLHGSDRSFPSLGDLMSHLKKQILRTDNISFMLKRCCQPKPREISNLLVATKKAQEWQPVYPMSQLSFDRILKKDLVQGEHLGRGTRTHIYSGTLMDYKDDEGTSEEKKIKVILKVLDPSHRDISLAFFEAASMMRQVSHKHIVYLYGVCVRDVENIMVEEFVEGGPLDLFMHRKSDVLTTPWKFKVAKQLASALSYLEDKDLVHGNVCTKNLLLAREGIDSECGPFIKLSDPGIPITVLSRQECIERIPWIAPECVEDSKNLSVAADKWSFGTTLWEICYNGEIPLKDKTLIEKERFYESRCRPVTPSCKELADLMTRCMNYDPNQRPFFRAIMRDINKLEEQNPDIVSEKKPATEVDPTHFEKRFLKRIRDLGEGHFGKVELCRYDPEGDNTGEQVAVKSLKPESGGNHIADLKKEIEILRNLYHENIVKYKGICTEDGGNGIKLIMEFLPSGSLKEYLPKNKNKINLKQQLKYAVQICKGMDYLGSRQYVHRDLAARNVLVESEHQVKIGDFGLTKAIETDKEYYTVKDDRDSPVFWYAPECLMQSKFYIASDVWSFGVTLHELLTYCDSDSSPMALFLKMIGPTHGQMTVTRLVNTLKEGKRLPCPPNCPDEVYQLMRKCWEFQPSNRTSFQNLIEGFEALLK
T1 sequence (Q13164 whole entry): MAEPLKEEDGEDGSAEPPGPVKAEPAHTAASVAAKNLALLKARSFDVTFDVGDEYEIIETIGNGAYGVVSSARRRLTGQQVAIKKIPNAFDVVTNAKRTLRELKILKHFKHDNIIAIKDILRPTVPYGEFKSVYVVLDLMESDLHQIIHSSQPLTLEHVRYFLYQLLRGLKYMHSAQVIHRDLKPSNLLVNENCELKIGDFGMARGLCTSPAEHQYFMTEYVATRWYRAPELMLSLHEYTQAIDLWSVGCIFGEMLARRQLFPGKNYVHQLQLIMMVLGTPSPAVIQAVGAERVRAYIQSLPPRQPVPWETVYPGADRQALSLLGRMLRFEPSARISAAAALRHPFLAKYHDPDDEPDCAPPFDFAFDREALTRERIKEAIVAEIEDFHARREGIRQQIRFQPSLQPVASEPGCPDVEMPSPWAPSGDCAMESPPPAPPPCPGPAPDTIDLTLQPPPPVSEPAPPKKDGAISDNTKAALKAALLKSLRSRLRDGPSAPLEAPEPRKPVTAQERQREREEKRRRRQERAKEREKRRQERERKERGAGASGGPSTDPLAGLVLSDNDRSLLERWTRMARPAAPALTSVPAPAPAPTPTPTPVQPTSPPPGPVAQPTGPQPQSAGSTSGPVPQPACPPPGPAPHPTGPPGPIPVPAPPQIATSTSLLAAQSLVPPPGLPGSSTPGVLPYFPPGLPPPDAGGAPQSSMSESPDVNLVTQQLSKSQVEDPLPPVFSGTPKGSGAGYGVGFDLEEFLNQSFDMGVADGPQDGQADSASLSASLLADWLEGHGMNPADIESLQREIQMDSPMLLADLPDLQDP

IC50 (ERK5; [1]) [nM] | inhibition at 1 µM (ERK5; [2]) [%] | inhibition at 1 µM (AurA; [3]) [%] | Kinase inhibition % at indicated screening concentration: AurB or AurC (AurB or AurC) | inhibition at 1 µM (JAK1; [4]) [%] | Kinase inhibition % at indicated screening concentration: AMPKa1 or AMPKa2 (AMPKa1 or AMPKa2) | inhibition at 1 µM (TAO2; [5]) [%] | inhibition at 1 µM (ACK; [6]) [%] | Kinase inhibition % at indicated screening concentration: ABL or ARG (ABL or ARG) | IC50 (ERK5; [7]) [nM] | inhibition at 1 µM (ERK5; [8]) [%] | inhibition at 1 µM (AurA; [9]) [%] | AurB or AurC Inhibition % at indicated screening concentration (AurB or AurC) | inhibition at 1 µM (JAK1; [10]) [%] | AMPKa1 or AMPKa2 Inhibition % at indicated screening concentration (AMPKa1 or AMPKa2) | inhibition at 1 µM (TAO2; [11]) [%] | inhibition at 1 µM (ACK; [12]) [%] | ABL or ARG Inhibition % at indicated screening concentration (ABL or ARG) | SMILES | EC50 (human PBMCs) [nM]
101 to 500 | 75 to 90 | ≤ 35 | E (E is ≦35%) | ≤ 35 | E (E is ≦35%) | ≤ 35 | ≤ 35 | E (E is ≦35%) | – | – | – | – | – | – | – | – | – | COc1ccc(Nc2cc3c(cn2)N(C)C(=O)c2ccccc2N3C)c(C)c1 [Compound 41] | 7610
101 to 500 | 75 to 90 | ≤ 35 | E (E is ≦35%) | ≤ 35 | E (E is ≦35%) | ≤ 35 | ≤ 35 | E (E is ≦35%) | – | – | – | – | – | – | – | – | – | Cc1cc(CO)ccc1Nc1cc2c(cn1)N(C)C(=O)c1ccccc1N2C [Compound 85, 3-(4-(hydroxymethyl)-2-methylphenylamino)-5,11-dimethyl-5H-benzo[e]pyrido[3,4-b][1,4]diazepin-10(11H)-one] | 1350
– | – | – | – | – | – | – | – | – | ≤ 50 | > 90 | ≤ 35 | E (E is ≦35%) | ≤ 35 | E (E is ≦35%) | ≤ 35 | 35 to 50 | E (E is ≦35%) | CCOc1cc(C(=O)N2CCN(C(C)=O)CC2)ccc1Nc1cc2c(cn1)N(C)C(=O)c1ccccc1N2C1CC1 [Compound T67] | 4900
– | – | – | – | – | – | – | – | – | ≤ 50 | > 90 | ≤ 35 | E (E is ≦35%) | ≤ 35 | E (E is ≦35%) | ≤ 35 | ≤ 35 | E (E is ≦35%) | CCOc1cc(C(=O)N2CCC(N3CCCC3)CC2)ccc1Nc1cc2c(cn1)N(C)C(=O)c1scnc1N2C [Compound T6] | 400
